Data as given in patent publication US7629320B2, “Nucleoside derivatives for treating hepatitis C virus infection” (SmithKline Beecham Corporation, priority 2002, dated 2009).

What was measured:
[1] = patients treated at currently recommended doses; cited from earlier work
HCV = assay: activity of Example 26 (test not stated; patent concerns anti-hepatitis C activity); conditions: test not specified

Structure (SMILES)	patients with significant hemolysis [1]	activity (stated in words) (HCV)
NC(=O)c1ncn([C@@H]2O[C@H](CO)[C@@H](O)[C@H]2O)n1 [Ribavirin, 1-β-D-ribofuranosyl-1H-1,2,-4-triazole-3-carboxamide]	10-20%	
O=P(O)(O)OP(=O)(O)OP(=O)(O)OC[C@H]1O[C@@H](n2cnc3c(NO)ncnc32)[C@H](O)[C@@H]1O [Example 26, 6-Hydroxylamino-9-β-D-ribofuranosylpurine 5′-Triphosphate]		inactive
